In US6362230B1, “Sulphonamide derivatives” (Eli Lilly and Company, priority 1998, dated 2002):

Molecular target: T1, human GluR4B receptor (Homo sapiens, UniProt P48058)
T1 construct: expressed in transfected cells
Test: potentiation of agonist-induced excitability of human GluR4B receptor expressed in HEK 293 cells
Format: cell-based
From the text: The ability of compounds of formula I or formula XVII to potentiate glutamate receptor-mediated response may be determined using fluorescent calcium indicator dyes (Molecular Probes, Eugene, Oreg., Fluo-3) and by measuring glutamate-evoked […] of calcium into GluR4 transfected HEK293 cells, as described in more detail below.
In one test, 96 well plates containing confluent monolayers of HEK cells stably expressing human GluR4B (obtained as described in European Patent Application Publication Number EP-A1-583917) are prepared. The tissue culture medium in the wells is then discarded, and the wells are each washed once with 200 μl of buffer (glucose, 10 mM, sodium chloride, 138 mM, magnesium chloride, 1 mM, potassium chloride, 5 mM, calcium chloride, 5 mM, N-[2-hydroxyethyl]piperazine-N-[2-ethanesulfonic acid], 10 mM, to pH 7.1 to 7.3). […]
Each test is then performed as follows. […] A second fluorescent reading is taken after 5 minutes incubation. 15 μl of 400 μM glutamate solution is then added to each well (final glutamate concentration 100 μM), and a third reading is taken. The activities of test compounds and cyclothiazide solutions are determined by subtracting the second from the third reading (fluorescence due to addition of glutamate in the presence or absence of test compound or cyclothiazide) and are expressed relative to enhance fluorescence produced by 100 μM cyclothiazide.

T1 sequence (P48058 21-902): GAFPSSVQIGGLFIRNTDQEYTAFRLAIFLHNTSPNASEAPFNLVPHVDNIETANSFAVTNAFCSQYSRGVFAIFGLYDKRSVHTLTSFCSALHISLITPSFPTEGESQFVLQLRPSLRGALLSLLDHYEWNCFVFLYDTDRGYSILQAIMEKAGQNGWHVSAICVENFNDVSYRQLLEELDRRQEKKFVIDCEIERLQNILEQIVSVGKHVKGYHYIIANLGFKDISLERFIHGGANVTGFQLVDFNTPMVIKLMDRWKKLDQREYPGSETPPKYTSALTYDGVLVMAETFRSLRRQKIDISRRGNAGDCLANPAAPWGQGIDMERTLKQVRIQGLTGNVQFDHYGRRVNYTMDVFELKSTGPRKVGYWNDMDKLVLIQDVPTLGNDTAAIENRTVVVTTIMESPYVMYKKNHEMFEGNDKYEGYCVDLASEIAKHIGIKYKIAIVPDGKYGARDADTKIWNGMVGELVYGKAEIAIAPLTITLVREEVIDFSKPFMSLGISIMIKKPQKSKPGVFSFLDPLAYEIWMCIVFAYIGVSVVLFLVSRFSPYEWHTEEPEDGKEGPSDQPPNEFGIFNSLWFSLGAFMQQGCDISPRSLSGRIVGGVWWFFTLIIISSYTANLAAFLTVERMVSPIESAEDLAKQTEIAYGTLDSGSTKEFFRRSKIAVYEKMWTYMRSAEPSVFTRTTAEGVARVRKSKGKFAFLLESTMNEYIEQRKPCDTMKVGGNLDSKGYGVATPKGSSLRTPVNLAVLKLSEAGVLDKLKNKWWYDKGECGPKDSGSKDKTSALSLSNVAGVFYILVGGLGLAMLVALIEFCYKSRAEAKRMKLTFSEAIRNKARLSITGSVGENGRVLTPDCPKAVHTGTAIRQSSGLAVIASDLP

With `NS(=O)(=O)c1cc2c(cc1Cl)NC(C1CC3C=CC1C3)NS2(=O)=O` (stereo not shown) [cyclothiazide] the “potentiation of agonist-induced excitability of human GluR4B receptor” value was “potentiate agonist-induced excitability”.
